Data reported in patent US6352737B1, “Use of nanoscale sterols and sterol esters” (Cognis Deutschland GmbH, priority 1999, dated 2002).

Tested on: radioactive cholesterol
Experiment: Hypocholesterolemic effect: content of radioactive cholesterol in blood of rats after oral gelatine capsule
Type: in vivo
Conditions: male rats, relative to blank group, mean of 10 animals; for Radioactivity After 3 h: blood 3 h after gelatine capsule (5% by weight sterol/ester, 0.5% by weight radioactively marked cholesterol) via stomach probe; for Radioactivity After 6 h: blood 6 h after gelatine capsule via stomach probe; for Radioactivity After 12 h: blood 12 h after gelatine capsule via stomach probe; for Radioactivity After 24 h: blood 24 h after gelatine capsule via stomach probe; for Radioactivity After 48 h: blood 48 h after gelatine capsule via stomach probe
Procedure: Gelatine capsules (weight ca. 1.5 g) containing 5% by weight β-sitostanol or β-sitostanolester (nanoparticles encapsulated in a gelatine or chitosan matrix and non-nanoscale commercial products) and 0.5% by weight of radioactively marked cholesterol were prepared. To study the hypocholesterolemic effect, male rats (individual weight ca.200 g) were allowed no food overnight. The next day, a size-reduced gelatine capsule was inserted into each test animal via a stomach probe together with a little water containing sodium chloride. After 3, 6, 12, 24 and 48 h, blood was taken from the animals and the content of radioactive cholesterol was determined. The results, which represent the mean value of the measurements of 10 test animals, are set out in Table 2. The figures relating to the reduction in radioactivity are based on a blank group of test animals which were only given gelatine capsules containing 20% by weight of vitamin E and a corresponding quantity of radioactively marked cholesterol. Examples 1 and 2 correspond to the invention, Examples C1 and C2 are intended for comparison.

Row | SMILES | Radioactivity After 3 h [%-rel.] | Radioactivity After 6 h [%-rel.] | Radioactivity After 12 h [%-rel.] | Radioactivity After 24 h [%-rel.] | Radioactivity After 48 h [%-rel.]
1 | CC[C@H](CC[C@@H](C)[C@H]1CC[C@H]2[C@@H]3CC[C@H]4C[C@@H](O)CC[C@]4(C)[C@H]3CC[C@]12C)C(C)C [Example C1, β-Sitostanol] | 93 | 83 | 75 | 50 | 32
2 | CCCCCCCCCCCCCCCCCC(=O)O[C@H]1CC[C@@]2(C)[C@@H](CC[C@@H]3[C@@H]2CC[C@]2(C)[C@@H]([C@H](C)CC[C@@H](CC)C(C)C)CC[C@@H]32)C1 [Example C2, β-Sitostanyl stearate] | 90 | 80 | 71 | 44 | 26
